Source: patent US20260216093A1, “COMPOSITIONS AND METHODS FOR ENHANCED DRUG LOADING INTO LIPID-BASED CARRIERS” (UNIVERSITY OF NOTRE DAME DU LAC, priority 2023, published 2026)

What was measured:
[1] = system: cervical carcinoma cells (Hela); test: CCK-8 cell proliferation assay with Exo-Dox; format: cell-based, human; details: 24 h
Description: (§1) Cell viability was assessed using a Cell Counting Kit-8 (CCK-8 assay, Enzo). In brief, 3T3 and HepG2 cells were seeded into a 96-well flat culture plate (Corning). After being cultured overnight, the cells were washed with FBS-free EMEM and incubated with a specific concentration of sEV and exosomal relative in FBS-free medium at 37° C. for 12, 24, 36, or 48 h. The cells were then washed three times with sterilized PBS and incubated with fresh medium containing 10% FBS overnight. The cells were then washed with PBS, and FBS-free EMEM […] before adding assay reagent. After incubation for 20 min at 37° C., the cell proliferation and cytotoxicity were measured by absorbance at 460 nm. The background was measured by 3T3 and HepG2 cells cultured in FBS-free EMEM only.
(§2) The ability of Exo-Dox to inhibit cancer cell proliferation in vitro was then analyzed. Human hepatocellular carcinoma cells (HepG2) and cervical carcinoma cells (Hela) were treated with Exo-Dox for 24 h, while cells without treatment, treated with control sEVs, and D-Cys-GQDs mixed with free Dox are negative controls. Cell viability of all samples was measured by CCK-8 assay. […] Dox-loaded sEVs by sonication method were not included in the cell viability tests due to low yield of loaded sEVs that was caused by the damage of physical structure of sEVs by sonication (FIG. 17A-B).

[2] = system: Human hepatocellular carcinoma cells (HepG2); test: CCK-8 cell proliferation assay with Exo-Dox; format: cell-based; details: 24 h
Description: as §1, §2

tau fibrils = tau fibrils (Homo sapiens, UniProt P10636); test: Tau biosensor seeding (propagation) assay; format: cell-based; details: inhibitors added 1 h after tau fibrils; D-GQDs 0.1-0.8 μM, Qal:D-GQDs 10:1, 6:1, 3:1; bare Qal 1.5 μM to 9 μM
Description: To study the effect of Qal-D-GQD-Exo on tau propagation, a tau biosensor seeding assay (FIG. 35) was used to investigate whether the Qal-D-GQD-Exo could block the cellular transmission of exogeneous mature tau fibrils using three different ratios of Qal to D-GQDs (10:1, 6:1, and 3:1) and concentrations of D-GQDs at 0.8, 0.4, 0.2, and 0.1 μM.

tau fibrils, sequence (P10636 whole entry): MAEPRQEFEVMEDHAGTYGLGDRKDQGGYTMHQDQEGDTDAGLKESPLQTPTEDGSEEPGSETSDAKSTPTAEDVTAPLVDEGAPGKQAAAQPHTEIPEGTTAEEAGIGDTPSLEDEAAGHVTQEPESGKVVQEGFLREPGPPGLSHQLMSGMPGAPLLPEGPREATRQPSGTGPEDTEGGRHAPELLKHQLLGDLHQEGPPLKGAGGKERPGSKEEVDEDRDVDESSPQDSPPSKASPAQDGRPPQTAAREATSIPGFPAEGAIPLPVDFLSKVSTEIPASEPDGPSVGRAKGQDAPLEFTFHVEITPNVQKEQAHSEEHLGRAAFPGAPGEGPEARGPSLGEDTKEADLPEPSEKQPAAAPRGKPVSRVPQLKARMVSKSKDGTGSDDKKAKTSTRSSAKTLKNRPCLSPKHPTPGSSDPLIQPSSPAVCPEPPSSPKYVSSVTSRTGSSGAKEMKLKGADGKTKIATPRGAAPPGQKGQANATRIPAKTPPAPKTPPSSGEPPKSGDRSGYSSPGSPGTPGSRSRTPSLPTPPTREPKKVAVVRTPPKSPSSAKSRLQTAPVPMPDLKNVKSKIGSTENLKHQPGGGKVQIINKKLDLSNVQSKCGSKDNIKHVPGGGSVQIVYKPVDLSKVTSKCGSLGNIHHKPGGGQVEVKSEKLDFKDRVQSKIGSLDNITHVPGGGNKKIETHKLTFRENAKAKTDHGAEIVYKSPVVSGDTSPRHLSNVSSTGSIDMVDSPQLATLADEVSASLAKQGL

Compound	inhibition of cell proliferation [1] [%]	inhibition of cell proliferation [2] [%]	inhibition of intracellular tau aggregation, at most (tau fibrils)
COc1cccc2c1C(=O)c1c(O)c3c(c(O)c1C2=O)C[C@@](O)(C(=O)CO)C[C@@H]3O[C@H]1C[C@H](N)[C@H](O)[C@H](C)O1 [free Dox, Doxorubicin]	27.7±5.0	28.3±5.2	–
Qal: tau-specific N-amino peptide (NAP), amino acid sequence CGTHKLTFRASHAVQIVYKGC (SEQ ID NO: 2)	–	–	did not show any inhibitory efficiency
